Data from patent publication US9084770B2, “Modulation of insulin like growth factor I receptor expression in cancer” (Antisense Therapeutics, Ltd., priority 2008, dated 2015).
Strand notation (5' to 3'): a small letter for the sugar, then the base; units joined by * are phosphorothioate-linked, units joined directly phosphodiester-linked; [ ] holds rarer units or linkages, { } end groups; capitals alone tell only the bases. e = 2'-O-(2-methoxyethyl) (MOE); [5mC] = 5-methylcytosine; d = 2'-deoxy (DNA)

The substances below were run on human IGF-IR mRNA (assay: Antisense inhibition of human IGF-IR mRNA levels by quantitative RT-PCR (Table 1)). Conditions: as shown in Table 1.
Type: cell-based
Set-up: %INHIB (human IGF-IR mRNA levels): concentration or dose not given beside the values
Source text: Treatment of A549 cell cultures with oligonucleotides targeting IGF-IR is as described in WO 2004/072284.
Quantitation of IGF-IR mRNA levels was accomplished by RT-PCR using the ABI PRISM (trademark) 7600, 7700, or 7900 Sequence Detection System (PE-Applied Biosystems, Foster City, Calif.) according to manufacturer's instructions. This is a closed-tube, non-gel-based, fluorescence detection system which allows high-throughput quantitation of PCR products in real-time. As opposed to standard PCR in which amplification products are quantitated after the PCR is completed, products in real-time quantitative PCR are quantitated as they accumulate. This is accomplished by including in the PCR reaction an oligonucleotide probe that anneals specifically between the forward and reverse PCR primers, and contains two fluorescent dyes. A reporter dye (e.g., FAM or JOE, obtained from either PE-Applied Biosystems, Foster City, Calif., Operon Technologies Inc., Alameda, Calif. or Integrated DNA Technologies Inc., Coralville, Iowa) is attached to the 5′-end of the probe and a quencher dye (e.g., TAMRA, obtained from either PE-Applied Biosystems, Foster City, Calif., Operon Technologies Inc., Alameda, Calif. or Integrated DNA Technologies Inc., Coralville, Iowa) is attached to the 3′-end of the probe. When the probe and dyes are intact, reporter dye emission is quenched by the proximity of the 3′ quencher dye. During amplification, annealing of the probe to the target sequence creates a substrate that can be cleaved by the 5′-exonuclease activity of Taq polymerase. […] With each cycle, additional reporter dye molecules are cleaved from their respective probes, and the fluorescence intensity is monitored at regular intervals by laser optics built into the ABI PRISM (trademark) Sequence Detection System. In each assay, a series of parallel reactions containing serial dilutions of mRNA from untreated control samples generates a standard curve that is used to quantitate the percent inhibition after antisense oligonucleotide treatment of test samples.
PCR reagents were obtained from Invitrogen Corporation, (Carlsbad, Calif.). RT-PCR reactions were carried out by adding 20 μL PCR cocktail (2.5×PCR buffer minus MgCl2, 6.6 mM MgCl2, 375 μM each of dATP, dCTP, […] and dGTP, 375 nM each of forward primer and reverse primer, 125 nM of probe, 4 Units RNAse inhibitor, 1.25 Units PLATINUM (registered trademark) Taq, 5 Units MuLV reverse transcriptase, and 2.5×ROX dye) to 96-well plates containing 30 μL total RNA solution (20-200 ng). The RT reaction was carried out by incubation for 30 minutes at 48° C. Following a 10 minute incubation at 95° C. to activate the PLATINUM (trademark) Taq, 40 cycles of a two-step PCR protocol were carried out: 95° C. for 15 seconds (denaturation) followed by 60° C. for 1.5 minutes (annealing/extension).
Gene target quantities obtained by RT-PCR are normalized using either the expression level of GAPDH, a gene whose expression is constant, or by quantifying total RNA using RiboGreen (trademark) (Molecular Probes, Inc. Eugene, Oreg.). GAPDH expression is quantified by RT-PCR, by being run simultaneously with the target, multiplexing, or separately. Total RNA is quantified using RiboGreen (trademark) RNA quantification reagent (Molecular Probes, Inc. Eugene, Oreg.). Methods of RNA quantification by RiboGreen (trademark) are taught in Jones et al., 1998.
Probes and primers to human IGF-IR were designed to hybridize to the IGF-IR nucleotide sequence, using published sequence information (GenBank accession number NM000875 (SEQ ID NO:76) or M69229 (SEQ ID NO:77) which is the 5′ untranslated of the IGF-IR gene sequence (see FIG. 6).
In accordance with the present invention, a series of antisense compounds were designed to target different regions of the human IGF-IR mRNA or the 5′ untranslated region, using published sequences set forth in NM000875 (SEQ ID NO:77) and M69229 (SEQ ID NO:76). […]
With “175316 (antisense GCTCGCTGAAGGTCACAGCC; listed as DNA, chemistry not fully specified) [compound 175316]” the “inhibition of IGF-IR expression (lead compounds)” value (from here on “inhibition of IGF-IR expression”) was “demonstrated inhibition”. “323762 (antisense GCCTTGTGTCCTGAGTGTCT; listed as DNA, chemistry not fully specified) [compound 323762]” was tested, and the “inhibition of IGF-IR expression” value was “demonstrated inhibition”. With “175302 (antisense CCTCCATTTTCAAACCCGGA; listed as DNA, chemistry not fully specified) [compound 175302]” the “inhibition of IGF-IR expression” value was “demonstrated inhibition”. For “175314 (antisense e[5mC]*eT*e[5mC]*eG*e[5mC]*dT*dG*dA*dA*dG*dG*dT*d[5mC]*dA*d[5mC]*eA*eG*e[5mC]*e[5mC]*eG) [compound 175314]”, the “inhibition of IGF-IR expression” value was “demonstrated inhibition”. For “323737 (antisense CTGCTTCGGCTGGACATGGT; listed as DNA, chemistry not fully specified) [compound 323737]”, the “inhibition of IGF-IR expression” value was “demonstrated inhibition”.

Same assay, conditions: quantitative RT-PCR; averages from 3 experiments
In the case of “323749 (antisense GCGCTGCAGCCCAGCTTCTC; listed as DNA, chemistry not fully specified) [compound 323749]”, the “%INHIB (human IGF-IR mRNA levels)” value was 71%. For “175324 (antisense TGAAGGTCACAGCCGAGGCG; listed as DNA, chemistry not fully specified) [compound 175324]”, the “%INHIB (human IGF-IR mRNA levels)” value was 57%. “323697 (antisense TGATAGTCGTTGCGGATGTC; listed as DNA, chemistry not fully specified) [compound 323697]” was tested, and the “%INHIB (human IGF-IR mRNA levels)” value was 73%. In the case of “323720 (antisense CTCATTGTTGATGGTGGTCT; listed as DNA, chemistry not fully specified) [compound 323720]”, the “%INHIB (human IGF-IR mRNA levels)” value was 81%. For “323703 (antisense GTCCTCGGCCTTGGAGATGA; listed as DNA, chemistry not fully specified) [compound 323703]”, the “%INHIB (human IGF-IR mRNA levels)” value was 71%. For “175315 (antisense GCAGCGGCCCAGGGCTCGGC; listed as DNA, chemistry not fully specified) [compound 175315]”, the “%INHIB (human IGF-IR mRNA levels)” value was 75%. With “323764 (antisense GCTGCTTGCATATTGAAAAA; listed as DNA, chemistry not fully specified) [compound 323764]” the “%INHIB (human IGF-IR mRNA levels)” value was 77%. With “323712 (antisense TCTCAATCCTGATGGCCCCC; listed as DNA, chemistry not fully specified) [compound 323712]” the “%INHIB (human IGF-IR mRNA levels)” value was 56%. “323738 (antisense TGTTCCTGCTTCGGCTGGAC; listed as DNA, chemistry not fully specified) [compound 323738]” was tested, and the “%INHIB (human IGF-IR mRNA levels)” value was 76%. For “323707 (antisense GAGATTGGTCATCTCGAAGA; listed as DNA, chemistry not fully specified) [compound 323707]”, the “%INHIB (human IGF-IR mRNA levels)” value was 20%. For “323755 (antisense GGAACGTACACATCAGCAGC; listed as DNA, chemistry not fully specified) [compound 323755]”, the “%INHIB (human IGF-IR mRNA levels)” value was 36%. In the case of “175306 (antisense AAGTCCGGGTCACAGGCGAG; listed as DNA, chemistry not fully specified) [compound 175306]”, the “%INHIB (human IGF-IR mRNA levels)” value was 54%. For “323721 (antisense GTTGTACTCATTGTTGATGG; listed as DNA, chemistry not fully specified) [compound 323721]”, the “%INHIB (human IGF-IR mRNA levels)” value was 73%. With “175316 (antisense GCTCGCTGAAGGTCACAGCC; listed as DNA, chemistry not fully specified) [compound 175316]” the “%INHIB (human IGF-IR mRNA levels)” value was 82%. With “323753 (antisense AAGAACACAGGATCTGTCCA; listed as DNA, chemistry not fully specified) [compound 323753]” the “%INHIB (human IGF-IR mRNA levels)” value was 38%. With “323706 (antisense TGGTCATCTCGAAGATGACC; listed as DNA, chemistry not fully specified) [compound 323706]” the “%INHIB (human IGF-IR mRNA levels)” value was 5%. “323710 (antisense AAGCCCAATATCCTTGAGAT; listed as DNA, chemistry not fully specified) [compound 323710]” was tested, and the “%INHIB (human IGF-IR mRNA levels)” value was 43%. With “175301 (antisense AGCCCAAATCTGCCTAGGCG; listed as DNA, chemistry not fully specified) [compound 175301]” the “%INHIB (human IGF-IR mRNA levels)” value was 77%. For “323704 (antisense CGGTAGTCCTCGGCCTTGGA; listed as DNA, chemistry not fully specified) [compound 323704]”, the “%INHIB (human IGF-IR mRNA levels)” value was 71%. With “175320 (antisense CCAAATCCAGGACACACACA; listed as DNA, chemistry not fully specified) [compound 175320]” the “%INHIB (human IGF-IR mRNA levels)” value was 64%. In the case of “323756 (antisense ACTCCTTCATAGACCATCCC; listed as DNA, chemistry not fully specified) [compound 323756]”, the “%INHIB (human IGF-IR mRNA levels)” value was 26%. “323725 (antisense TTTGTGGTCCAGCAGCGGTA; listed as DNA, chemistry not fully specified) [compound 323725]” was tested, and the “%INHIB (human IGF-IR mRNA levels)” value was 67%. “323700 (antisense CCCTCGATCACCGTGCAGTT; listed as DNA, chemistry not fully specified) [compound 323700]” was tested, and the “%INHIB (human IGF-IR mRNA levels)” value was 56%. With “323762 (antisense GCCTTGTGTCCTGAGTGTCT; listed as DNA, chemistry not fully specified) [compound 323762]” the “%INHIB (human IGF-IR mRNA levels)” value was 84%. In the case of “323754 (antisense CATAGAAGAACACAGGATCT; listed as DNA, chemistry not fully specified) [compound 323754]”, the “%INHIB (human IGF-IR mRNA levels)” value was 33%. For “323751 (antisense GCCACTTTAAAAAGATGGAG; listed as DNA, chemistry not fully specified) [compound 323751]”, the “%INHIB (human IGF-IR mRNA levels)” value was 77%. For “175302 (antisense CCTCCATTTTCAAACCCGGA; listed as DNA, chemistry not fully specified) [compound 175302]”, the “%INHIB (human IGF-IR mRNA levels)” value was 93%. “323745 (antisense AGCCTCGTGGTTGCAGCTGT; listed as DNA, chemistry not fully specified) [compound 323745]” was tested, and the “%INHIB (human IGF-IR mRNA levels)” value was 75%. In the case of “175298 (antisense GGAGTCAAAATGAATGAGCG; listed as DNA, chemistry not fully specified) [compound 175298]”, the “%INHIB (human IGF-IR mRNA levels)” value was 74%. In the case of “323765 (antisense AAAAAGCTGCTTGCATATTG; listed as DNA, chemistry not fully specified) [compound 323765]”, the “%INHIB (human IGF-IR mRNA levels)” value was 74%. “323736 (antisense AGGAAATTCTCAAAGACTTT; listed as DNA, chemistry not fully specified) [compound 323736]” was tested, and the “%INHIB (human IGF-IR mRNA levels)” value was 43%. In the case of “323695 (antisense CCTTTTATTTGGGATGAAAT; listed as DNA, chemistry not fully specified) [compound 323695]”, the “%INHIB (human IGF-IR mRNA levels)” value was 50%. For “175314 (antisense e[5mC]*eT*e[5mC]*eG*e[5mC]*dT*dG*dA*dA*dG*dG*dT*d[5mC]*dA*d[5mC]*eA*eG*e[5mC]*e[5mC]*eG) [compound 175314]”, the “%INHIB (human IGF-IR mRNA levels)” value was 87%. “175300 (antisense GCTGGTAAACAAGAGCCCCA; listed as DNA, chemistry not fully specified) [compound 175300]” was tested, and the “%INHIB (human IGF-IR mRNA levels)” value was 54%. In the case of “175328 (antisense GGTAAACAAGAGCCCCAGCC; listed as DNA, chemistry not fully specified) [compound 175328]”, the “%INHIB (human IGF-IR mRNA levels)” value was 64%. In the case of “323737 (antisense CTGCTTCGGCTGGACATGGT; listed as DNA, chemistry not fully specified) [compound 323737]”, the “%INHIB (human IGF-IR mRNA levels)” value was 84%.
